Publication PMC3404738 (International journal for parasitology, drugs and drug …, 2012)

System: A. ceylanicum
Assay: In vivo treatment in the hamster model of hookworm infection
Set-up: species or system Ancylostoma ceylanicum
Details: ABZ 10mg/kg once orally, hamsters, 20 DPI, vs infected controls

With `CCCSc1ccc2nc(NC(=O)OC)[nH]c2c1` [Albendazole, reference compound] the Intestinal worm burdens was “eliminated intestinal worm burdens”.
